Results on 2 molecules are retold here after patent US7071190B2, “Inhibitors to tubulin polymerization” (Rigel Pharmaceuticals, Inc., priority 2002, dated 2006).

For one assay, the system named is A549 (lung) tumors. Description: A549 (lung) human tumor xenograft in nude mice. It is filed as in vivo, NCr nude (nu/nu) female mice. To be noted: for Increase in tumor volume at 35 days normalized to tumor volume at start of drug treatment: vehicle approximately 7-fold; for %T/C (mean tumor volume treated vs. control ×100): A549 xenografts. The text has this:
(§1) A nude mouse/human carcinoma model was used to examine the effect of tubulin inhibitors on tumor growth and animal survival. Groups of immune deficient (nude) mice were implanted subcutaneously with suspensions of the human tumor lines A549 (lung) and SW480 (colon). When palpable tumors appeared and were of a preselected volume (approximately 40–150 mm^3), animals were subdivided into various treatment groups such that the variation in mean tumor volume of each group was within 10%. The animals were then treated daily with either control vehicle or Compound 1 administered by intraperitonel injection. Twice weekly, the volume of the tumors in each animal in each group was measured to gather information on tumor growth (volume) as a function of time. Systemic toxicity was assessed by measuring individual animal body weights, and toxicity was evaluated by examination of differences in body weight gain as a function of time. Tumor volumes and body weights were monitored for up to 35 days after the beginning of treatment.
Cell Lines: Human tumor lines A549 (lung) and SW480 (colon) were grown in cell culture medium (F-11) containing 10% Fetal Bovine Serum (FBS). The cells were kept at 37° C. in a humidified 5% CO2/air incubator. Antibiotics were not added to the medium.
NCr nude (nu/nu) female mice, age 3–4 weeks, were purchased from Taconic (Germantown, N.Y.). The animals were housed ten per cage in sterile filter-topped cages in ventilated cage racks and Microisolator™ cages. Upon arrival, they were quarantined for at least four working days before use. Temperature was maintained at 72±5° F. (19–24° C.) and relative humidity at 35–70%, and a 12-hour light/dark cycle was used. The mice were fed sterile, autoclavable, certified, Purina rodent chow ad libitum. Drinking water was also autoclaved.
After the animals were released from quarantine, the mice were injected subcutaneously in the right flank with either 5×10^6 A549 cells or 5×10^6 SW480 cells in complete medium at an injection volume of 0.1 ml. Tumor dimensions and body weights were measured two times per week. Vernier calipers were used to measure tumors in two planes, and tumor volume (V) was calculated as follows: V=(xy^2)/2,
The test articles were administered intraperitoneally generally at a dose level of 10 mg/kg. When the solubility of a molecule of the invention was relatively low, we used relatively higher levels of organic co-solvents for preparation of the dosing solution. The “vehicle” of the invention comprised of 7.1% ethanol/35.8% PEG400/57.1% phosphate buffer (v/v/v).
When the tumor volumes reached a predetermined size (mean tumor volume between about 40–150 mm^3), animals were added randomly to treatment groups of 12 mice each as follows: Animals were treated daily with the vehicle or Compound 1 (10 mg/kg), or with the positive control drug (Taxol) administered by intraperitoneal injection at the maximum tolerated dose of 20 mg/kg every fourth day, on Days 1, 4, 7, and 10.
The tumor volumes of the animals were monitored for evidence of shrinkage or growth delay for a period of up to 35 days after the start of treatment. Response to treatment was measured in two ways, depending on the tumor response to treatment. The first was the optimum T/C (%), calculated as follows: For each day the tumors were measured, the changes in median tumor volume (V) for each treated (T) and control (C) group were determined by subtracting the […] tumor volume on the first day of treatment (Day 0) from the median tumor volume on the specific observation day. These values were used to express a percent difference in size, [% T/C=(T/C)×100]. The minimum value is designated the optimum response to treatment. A value of 42% or less is considered active by National Cancer Institute (NCI) standards. […]

The next assay has as its system A549 cells. Description: Bromodeoxyuridine (BrdU) proliferation assay. Type of assay: cell-based, human. The essentials: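 A549 cells were plated 24 h before compound, which was given at final 10, 3, 1, 0.3, 0.1 and 0.03 μM in 0.2% DMSO/0.75% ethanol.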
In assay [1] the test system is MAP-rich tubulin protein from bovine brain. Description: Tubulin polymerization turbidity assay (A340 over time). It is filed as biochemical. To be noted: 10 μM compound, FIG. 1 (a), (b). How it is done:
FIG. 1. Tubulin polymerization inhibitory activity of the compounds of the invention was assayed by following the turbidity of a tubulin-containing solution over time. Polymerization of tubulin generates microtubules, the presence of which increases the absorbance of the assay solution over time. Effective inhibition manifests as a reduction of rate of absorbance increase at 340 nanometers. (a) 10 μM of compounds 19, 39, 43, 54 and 62, as well as 10 μM nocodazole as a positive control and DMSO as a negative control. (b) 10 μM of compounds 1, 88, 95, and 54, as well as 10 μM as well a positive controls 1 and 2 and DMSO as a negative control. (c) 0.4, 2.0 and 10 μM compound 54 versus 0.4, 2.0 and 10 μM nocodazole as a positive control and DMSO as a negative control.
Measurement of the tubulin polymerization can be achieved using known methodologies. For example, assays for tubulin polymerization may be performed using a kit from Cytoskeleton (Denver, Colo.) and as described by Tahir, S. K., et al, (2001) Cancer Res., 61:5480–5.
The assay measures tubulin polymerization as an increase in turbidity (A340) over time. Assays for tubulin polymerization were performed using a kit from Cytoskeleton (Denver, Colo.) and as described by Tahir, S. K., et al, (2001) Cancer Res., 61: 5480–5, incorporated herein by reference, and as described below.
To determine the ability of the compounds to inhibit microtubule polymerization in vitro, the following protocol was followed: (i) 70 μl ice-cold MAP-rich tubulin protein from bovine brain (1.5 mg/ml final concentration) was added to polymerization buffer (80 mM PIPES pH6.8, 1 mM EGTA, 1 mM MgCl2, 1 mM GTP) in a quartz microcuvette; (ii) 0.7 μl of DMSO or 100X stock of control (nocodazole) or test compound (thienopyrimidine) in DMSO were added to the cuvette; (iii) the contents were mixed by pipefting gently; (iv) the polymerization reaction was initiated by placing the cuvette in pre-warmed (37° C.) cuvette holder in Beckman spectrophotometer; (v) the absorbance was monitored at 340 nm at 30 second intervals for 20 minutes. Tubulin polymerization result in increased turbidity in the reaction solution, which is registered as an increase in absorbance at 340 nm. Inhibitors of tubulin polymerization are detected by a reduction in the rate, the initial slope, and/or extent of the turbidity change (i.e., max. absorbance at 340 nm) in plots of ΔA340 versus time.

In a further assay the test system is SW480 tumors. Description: SW480 (colon) human tumor xenograft in nude mice. Type of assay: in vivo, NCr nude (nu/nu) female mice. To be noted: 10 mg/kg daily intraperitoneal.
Source text: as §1, with “treatment. […]” for “treatment.”
After the animals were released from quarantine, the mice were injected subcutaneously in the right flank with either 5×10^6 A549 cells or 5×10^6 SW480 cells in complete medium at an injection volume of 0.1 ml. Tumor dimensions and body weights were measured two times per week. […]

“Also recorded” adds a separate entry of the source.

With `S=C(NNc1ncnc2cc(-c3ccccc3)sc12)Nc1ccccc1` [Compound 1], the “Increase in tumor volume at 35 days normalized to tumor volume at start of drug treatment” value in the assay on A549 (lung) tumors (A549 xenograft, 10 mg/kg daily intraperitoneal) worked out at 4 fold. In addition, the “Mean tumor volume after 27 days of treatment” value in the assay with A549 (lung) tumors (A549 xenograft, 10 mg/kg daily, vehicle control 346.9±164.7 mm^3) is on record as 223.8±164.1 mm^3. Further, the “Effect on tumor growth” value with A549 (lung) tumors (A549 xenograft, Compound 1 10 mg/kg daily intraperitoneal, 10 mg/kg) is on record as “slowed tumor growth substantially; also recorded: substantial suppression of tumor growth”. Further, in the assay on A549 (lung) tumors (10 mg/kg daily intraperitoneal), the “%T/C (mean tumor volume treated vs. control ×100)” value is 65%. Also, the IC50 in the assay with A549 cells (Homo sapiens, A549, 48 h, BrdU ELISA 48 hours after addition of compound, tested 0.03-10 uM, cell line not given (A549 method; SW-480 and MDA-MB-231 also used), read-out: Assay Result (IC50μM)) stood at 0.664 µM. Also, in the assay with A549 cells (antiproliferative activity), the “Activity ranking: most active compounds of the invention” value is on record as “most active” and the “Activity ranking: particularly active examples of the compounds of the invention” value is on record as “particularly active”. The “Inhibition of tubulin polymerization (reduction of rate of absorbance increase at 340 nanometers)” value in assay [1] was “Inhibition activity is observed”. In addition, the “Effect on tumor size” value with SW480 tumors is given as “did not result in a reduced tumor size”. In addition, the Tumor volume with SW480 tumors (controls 677.9±574.3 mm^3) is on record as 647.7±500.6 mm^3.
As for `CC(=O)O[C@H]1C(=O)[C@@]2(C)[C@H]([C@H](OC(=O)c3ccccc3)[C@]3(O)C[C@H](OC(=O)[C@H](O)[C@@H](NC(=O)c4ccccc4)c4ccccc4)C(C)=C1C3(C)C)[C@]1(OC(C)=O)CO[C@@H]1C[C@@H]2O` [Taxol, reference compound], the “Increase in tumor volume at 35 days normalized to tumor volume at start of drug treatment” value in the assay with A549 (lung) tumors (A549 xenograft, 20 mg/kg intraperitoneal every fourth day (Days 1, 4, 7, 10)) amounted to 4 fold. Moreover, the “%T/C (mean tumor volume treated vs. control ×100)” value in the assay on A549 (lung) tumors (20 mg/kg intraperitoneal every fourth day) turned out to be 59%.
